Structures can show the parent of a compound that is named as a salt.

The subject of data set [1] is multiple drug-resistant strains of C. glabrata. Nature of the data set: antifungal activity against C. glabrata. The class given is cell-based. Particulars: antifungal agent used in combination with the manganese compound.
The next data set has as its system S. pyogenes C721. Nature of the data set: MIC by microtitre broth dilution. The class given is cell-based. The note with it: Gram+, wt, Todd Hewitt broth, 37° C., 24 h. As to the method:
(§1) MIC assays were conducted essentially as described by Amsterdam, D. 1996, “Susceptibility testing of antimicrobials in liquid media”, p. 52-111, in Loman, V., ed. Antibiotics in laboratory medicine, 4th ed. Williams and Wilkins, Baltimore, Md.

Data set [2] has as its system K. pneumoniae ATCC13883 C238. Nature of the data set: MIC by microtitre broth dilution. Particulars: Gram−, wt, Mueller Hinton broth, 37° C., 24 h. The class given is cell-based. As to the method:
as §1
Background: Broth dilution looks for growth in wells or tubes with falling amounts of substance.

A further data set concerns E. coli UB1005 C498. Briefly: MIC by microtitre broth dilution. The class given is cell-based. The note with it: Gram−, wt, Mueller Hinton broth, 37° C., 24 h. As to the method: as §1
The test system of data set [3] is P. aeruginosa PAE/K799 H187. Nature of the data set: MIC by microtitre broth dilution. The class given is cell-based. Particulars: Gram−, wt, Mueller Hinton broth, 37° C., 24 h. As to the method:
as §1

For a further data set, the system named is S. epidermidis C621. Briefly: MIC by microtitre broth dilution. The class given is cell-based. Particulars: Gram+, wt, Mueller Hinton broth, 37° C., 24 h. As to the method:
as §1

A further data set relates to S. aureus ATCC25923 C622. Briefly: MIC by microtitre broth dilution. The class given is cell-based. The note with it: Gram+, wt, Mueller Hinton broth, 37° C., 24 h. How it is done:
as §1

Data set [4] relates to immunosuppressive agents, such as cyclosporine. Nature of the data set: potency of immunosuppressive agents (enhancer effect).
Another data set deals with TNF-α. Briefly: Rat carrageenan-induced paw edema model: TNF-α in paw tissue by ELISA. The class given is in vivo. As to the method: (§2) A dose-range finding study was performed to determine the anti-inflammatory activity of various ratios of methyl prednisolone acetate and amoxapine in a rat carrageenan-induced paw edema model. […] The molar ratio of methyl prednisolone acetate to amoxapine ranged from 1:1 to 1:300, using total doses of methyl prednisolone acetate of 0.01, 0.03 or 0.1 mg/kg.
(§3) The test agent (a combination of methyl prednisolone acetate and amoxapine), vehicle control, or reference agents (methyl prednisolone acetate, amoxapine, or Depo-Medrol®) were administered in the left hind foot pad of rats. After 60 minutes, paw edema was induced by injection of 100 μl of 1% carrageenan in the same foot pad. The paw volume was measured with a water displacement plethysmometer immediately prior to test agent injection (T−1h), at the time of carrageenan injection (T0h), and at T6h. Animals were euthanized by carbon dioxide inhalation. Paw tissue samples were collected and flash frozen in liquid nitrogen. Samples were assayed for TNF-α by enzyme-linked immunoassay (ELISA).
(The carrageenan paw model is a standard test of acute inflammation.)

In data set [5] the test system is carrageenan-induced paw edema. Nature of the data set: Rat carrageenan-induced paw edema model: paw swelling. The class given is in vivo. Particulars: local injection in paw at T-1 hr, Tmax = 6 hrs. As to the method: as §2, §3
For data set [6] the following is noted: cited from earlier work; for solubility in alcohol / ethanol (in words): alcohol or ethanol.

For the molecule `CCC(C)n1ncn(-c2ccc(N3CCN(c4ccc(OC[C@H]5CO[C@](Cn6cncn6)(c6ccc(Cl)cc6Cl)O5)cc4)CC3)cc2)c1=O` (mixture of isomers) [itraconazole], the “enhancement of antifungal activity by the manganese compound” value (shortened to “enhancement of antifungal activity”) in data set [1] is given as “enhances”.
On to `Sc1ncc2[nH]cnc2n1` [2-mercaptopurine], for which the Minimum inhibitory concentration entry (in the data set on S. pyogenes C721; in [2]; in the data set on E. coli UB1005 C498; in data set [3]; in the data set on S. epidermidis C621; with S. aureus ATCC25923 C622) was “N” each time.
In the case of `O=c1[nH]cc(F)c(=O)[nH]1` [5-fluorouracil, 5-FU], the Minimum inhibitory concentration with S. pyogenes C721 is 10^−4 Molar; in data set [2] it was 10^−6 Molar; with E. coli UB1005 C498 it was 10^−6 Molar; in data set [3] it was 10^−5 Molar; with S. epidermidis C621, 10^−7 Molar; with S. aureus ATCC25923 C622, 10^−7 Molar.
`Sc1ncnc2nc[nH]c12` [6-mercaptopurine]: the Minimum inhibitory concentration result (with S. pyogenes C721; in data set [2]; with E. coli UB1005 C498; in [3]; in the data set on S. epidermidis C621; with S. aureus ATCC25923 C622) was “N” in each case.
For `Nc1ccn([C@@H]2O[C@H](CO)[C@@H](O)[C@@H]2O)c(=O)n1` [Cytarabine, cytarabine], the Minimum inhibitory concentration result (in the data set with S. pyogenes C721; in [2]; with E. coli UB1005 C498; in data set [3]; in the data set on S. epidermidis C621; with S. aureus ATCC25923 C622) was “N” throughout.
On to `CCN(CC)C(C)CN1c2ccccc2Sc2ccccc21` (stereo not drawn) [Ethopropazine, ethopropazine], for which the “effect on the potency of immunosuppressive agents” value (“effect on the potency” for short) in data set [4] is reported as “increases the potency”.
Same read-out and setting: for `CN(C)C(=O)C(CCN1CCC(O)(c2ccc(Cl)cc2)CC1)(c1ccccc1)c1ccccc1` [Loperamide] the value was “increase the potency”.
With `CC(=O)OCC(=O)[C@@]1(O)CC[C@H]2[C@@H]3C[C@H](C)C4=CC(=O)C=C[C@]4(C)[C@H]3[C@@H](O)C[C@@]21C` [MePredAc, methyl prednisolone acetate], the entries for the “TNF-α ± SEM” value in the data set with TNF-α (0.01 mg/kg), in the data set on TNF-α (0.03 mg/kg) and in the data set with TNF-α (0.1 mg/kg) were 35.9 ± 11.3 pg/g, 19.2 ± 3.1 pg/g and 28.0 ± 6.0 pg/g, respectively. For the same molecule, the results for the “Edema ± SEM” value in data set [5] (0.01 mg/kg), in data set [5] (0.03 mg/kg) and in data set [5] (0.1 mg/kg) were 32.6 ± 5.3%, 26.2 ± 7.0% and 12.2 ± 1.8%, respectively.
Take `Nc1ccc(/N=N/c2ccccc2)c(N)n1` [Phenazopyridine base, phenazopyridine]: in [6], the “solubility in alcohol / ethanol (in words)” value was “slightly soluble” and the “solubility in water (in words)” value is recorded as “slightly soluble”.
For the molecule `NC(=O)c1ncn([C@@H]2O[C@H](CO)[C@@H](O)[C@H]2O)n1` [Ribavirin, ribavirin], the “solubility in alcohol / ethanol (in words)” value in data set [6] was “slightly soluble”.
Turning to `CC[C@@]1(O)C(=O)OCc2c1cc1n(c2=O)Cc2cc3ccccc3nc2-1` [camptothecin, camptothecins], the Minimum inhibitory concentration result in the data set on S. pyogenes C721 is “N”; in data set [2], “N”; with E. coli UB1005 C498, “N”; in [3], “N”; in the data set with S. epidermidis C621 it was 10^−4 Molar; with S. aureus ATCC25923 C622 it was “N”.
In the case of `CC[C@H](C)C[C@H](C)CCCCCCCCC(=O)N[C@H]1C[C@@H](O)[C@@H](NCCN)NC(=O)[C@@H]2[C@@H](O)CCN2C(=O)[C@H]([C@H](O)CCN)NC(=O)[C@H]([C@H](O)[C@@H](O)c2ccc(O)cc2)NC(=O)[C@@H]2C[C@@H](O)CN2C(=O)[C@H]([C@@H](C)O)NC1=O` [caspofungin], the “enhancement of antifungal activity” value in data set [1] is reported as “enhances”.
For the molecule `N.N.[Cl][Pt][Cl]` [cisplatin], the Minimum inhibitory concentration result in the data set on S. pyogenes C721 is “N”; in [2], “N”; in the data set on E. coli UB1005 C498, “N”; in data set [3], 10^−4 Molar; in the data set on S. epidermidis C621 it was “N”; in the data set on S. aureus ATCC25923 C622 it was “N”.
For the molecule `COc1cccc2c1C(=O)c1c(O)c3c(c(O)c1C2=O)C[C@@](O)(C(=O)CO)C[C@@H]3O[C@H]1C[C@H](N)[C@H](O)[C@H](C)O1` [doxorubicin], the Minimum inhibitory concentration is 10^−7 Molar in the data set with S. pyogenes C721; 10^−6 Molar in data set [2]; 10^−4 Molar in the data set with E. coli UB1005 C498; 10^−5 Molar in data set [3]; 10^−6 Molar in the data set with S. epidermidis C621; 10^−5 Molar in the data set with S. aureus ATCC25923 C622.
Take `COc1cc([C@@H]2c3cc4c(cc3[C@@H](O[C@@H]3O[C@@H]5CO[C@@H](C)O[C@H]5[C@H](O)[C@H]3O)[C@H]3COC(=O)[C@H]23)OCO4)cc(OC)c1O` [etoposide]: the Minimum inhibitory concentration is given as 10^−5 Molar with S. pyogenes C721; 10^−5 Molar in data set [2]; “N” in the data set on E. coli UB1005 C498; “N” in data set [3]; 10^−6 Molar with S. epidermidis C621; 10^−5 Molar in the data set with S. aureus ATCC25923 C622.
As for `OC(Cn1cncn1)(Cn1cncn1)c1ccc(F)cc1F` [fluconazole], in [1], the “enhancement of antifungal activity” value was “enhances”.
Regarding `NC(=O)NO` [hydroxyurea], the Minimum inhibitory concentration in the data set with S. pyogenes C721 is recorded as 10^−4 Molar; in [2], “N”; in the data set with E. coli UB1005 C498 it was “N”; in data set [3], 10^−4 Molar; in the data set with S. epidermidis C621, “N”; with S. aureus ATCC25923 C622, “N”.
Turning to `CNCCCC12CCC(c3ccccc31)c1ccccc12` [maprotiline, Maprotiline], the “effect on the potency” value in data set [4] was “increases the potency”.
`CN(Cc1cnc2nc(N)nc(N)c2n1)c1ccc(C(=O)N[C@@H](CCC(=O)O)C(=O)O)cc1` [methotrexate]: the Minimum inhibitory concentration in the data set with S. pyogenes C721 was 10^−6 Molar; in data set [2], 10^−6 Molar; in the data set with E. coli UB1005 C498 it was “N”; in data set [3], “N”; in the data set on S. epidermidis C621, “N”; with S. aureus ATCC25923 C622, 10^−5 Molar.
For `O=C1c2c(O)ccc(O)c2C(=O)c2c(NCCNCCO)ccc(NCCNCCO)c21` [mitoxantrone], the Minimum inhibitory concentration with S. pyogenes C721 is on record as 10^−6 Molar; in [2] it was 10^−6 Molar; in the data set with E. coli UB1005 C498 it was 10^−5 Molar; in data set [3], 10^−5 Molar; with S. epidermidis C621 it was 10^−5 Molar; in the data set on S. aureus ATCC25923 C622, 10^−5 Molar.
As for `Nc1ccc(/N=N\c2ccccc2)c(N)n1` [phenazopyridine-HCl], in data set [6], the “solubility in water (in words)” value is listed as “slightly soluble”.
Turning to `CN(C/C=C/C#CC(C)(C)C)Cc1cccc2ccccc12.Cl` [terbinafine, terbinafine hydrochloride], in data set [1], the “enhancement of antifungal activity” value is “enhances”.
Regarding `Oc1cc(Cl)ccc1Oc1ccc(Cl)cc1Cl` [triclosan, Triclosan], the “effect on the potency” value in data set [4] is “increases the potency”.
As to `Nc1ncnc2c1ccn2[C@@H]1O[C@H](CO)[C@@H](O)[C@H]1O` [tubercidin], the Minimum inhibitory concentration entry (in the data set with S. pyogenes C721; in [2]; in the data set with E. coli UB1005 C498; in [3]; in the data set on S. epidermidis C621; with S. aureus ATCC25923 C622) was “N” each time.

The values above are taken from patent US20070196421A1, “Soft tissue implants and drug combination compositions, and use thereof” (priority 2005, published 2007).
